Test results: patent publication US20250230193A1, “CYCLIC COMPOUND HAVING SELECTIVE KRAS INHIBITORY EFFECT ON HRAS AND NRAS” (CHUGAI SEIYAKU KABUSHIKI KAISHA, priority 2022, published 2025)
Where a SMILES comes first, the peptide text is derived from it. Bridges are numbered along the chain shown (N, C = ends). [ ]: non-standard residue; d: D form. hPhe(3-Cl-4-CF3) = N[C@@H](CCc1ccc(C(F)(F)F)c(Cl)c1)C(=O)O; NPrPhe(4-CF3) = CCCN[C@@H](Cc1ccc(C(F)(F)F)cc1)C(=O)O; NMeGly(cPent) = CN[C@H](C(=O)O)C1CCCC1; Hyp = O=C(O)[C@@H]1C[C@@H](O)CN1; NMeD = CN[C@@H](CC(=O)O)C(=O)O; NMeL = CN[C@@H](CC(C)C)C(=O)O; Ac4c = NC1(C(=O)O)CCC1; NEtG = CCNCC(=O)O; Sar = CNCC(=O)O

Columns and labels:
[1] = biological target: GDP-bound NRAS wild-type protein (Homo sapiens, UniProt P01111); experiment: Binding to NRAS by surface plasmon resonance (SPR), Single Cycle Kinetics; settings: SPR; for NRAS/KRAS (ratio of KD value with respect to NRAS to KD value with respect to KRAS): GDP-bound NRAS wild-type vs GDP-bound KRAS wild-type
Chain of GDP-bound NRAS wild-type protein (P01111 whole entry): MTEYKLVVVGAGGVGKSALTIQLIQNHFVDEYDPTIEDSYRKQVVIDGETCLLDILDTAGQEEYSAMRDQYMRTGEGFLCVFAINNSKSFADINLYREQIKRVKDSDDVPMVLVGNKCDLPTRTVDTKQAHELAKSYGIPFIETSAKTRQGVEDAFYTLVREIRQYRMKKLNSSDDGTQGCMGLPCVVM

[2] = biological target: GDP-bound HRAS wild-type protein (Homo sapiens, UniProt P01112); experiment: Binding to HRAS by surface plasmon resonance (SPR), Single Cycle Kinetics; settings: SPR; for HRAS/KRAS (ratio of KD value with respect to HRAS to KD value with respect to KRAS): GDP-bound HRAS wild-type vs GDP-bound KRAS wild-type
Chain of GDP-bound HRAS wild-type protein (P01112 whole entry): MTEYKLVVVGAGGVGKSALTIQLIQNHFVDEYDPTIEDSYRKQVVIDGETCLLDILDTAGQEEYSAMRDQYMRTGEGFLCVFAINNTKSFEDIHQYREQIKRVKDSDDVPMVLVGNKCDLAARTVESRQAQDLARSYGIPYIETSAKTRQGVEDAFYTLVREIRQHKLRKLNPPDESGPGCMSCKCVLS

## CCO[C@@H]1C[C@H]2C(=O)NC3(CCC3)C(=O)N(C)[C@@H](C(CC)CC)C(=O)N(C)[C@H](C(=O)N3CCOCC3)CC(=O)N(C)[C@@H](CC(C)C)C(=O)N[C@@H]([C@@H](C)CC)C(=O)N(C)CC(=O)N(C)[C@H]3CCCCCN(C3=O)[C@@H](Cc3ccc(C(F)(F)F)cc3)C(=O)N(C)CC(=O)N[C@@H](CCc3cc(F)c(C(F)(F)F)c(F)c3)C(=O)N2C1 [PP0820]
[1]; KD ratio
  NRAS/KRAS (ratio of KD value with respect to NRAS to KD value with respect to KRAS): A (a compound having 10 or more and less than 20 is denoted as A)
[2]; KD ratio
  HRAS/KRAS (ratio of KD value with respect to HRAS to KD value with respect to KRAS): B (a compound having 3 or more and less than 10 is denoted as B)

## CCO[C@@H]1C[C@H]2C(=O)NC3(CCC3)C(=O)N(C)[C@@H](C3CCCC3)C(=O)N(CC)[C@H](C(=O)N3CCOCC3)CC(=O)N(C)[C@@H](CO)C(=O)N[C@@H]([C@@H](C)CC)C(=O)N(C)CC(=O)N(C)[C@H]3CCCCCN(C3=O)[C@@H](Cc3ccc(C(F)(F)F)cc3)C(=O)N(C)CC(=O)N[C@@H](CCc3cc(F)c(C(F)(F)F)c(F)c3)C(=O)N2C1 [PP0945]
[1]; KD ratio
  NRAS/KRAS (ratio of KD value with respect to NRAS to KD value with respect to KRAS): B (a compound having 3 or more and less than 10 is denoted as B)
[2]; KD ratio
  HRAS/KRAS (ratio of KD value with respect to HRAS to KD value with respect to KRAS): A (a compound having 10 or more and less than 20 is denoted as A)

## CCO[C@@H]1C[C@H]2C(=O)NC3(CCC3)C(=O)N(C)[C@@H](C3CCCC3)C(=O)N(C)[C@H](C(=O)N3CCOCC3)CC(=O)N(C)[C@@H](CC(C)C)C(=O)N[C@@H]([C@@H](C)CC)C(=O)N(C)CC(=O)N(C)[C@H]3CCCCCN(C3=O)[C@@H](Cc3nccs3)C(=O)N(C)CC(=O)N[C@@H](CCc3cc(F)c(C(F)(F)F)c(F)c3)C(=O)N2C1 [PP0923]
[1]; KD ratio
  NRAS/KRAS (ratio of KD value with respect to NRAS to KD value with respect to KRAS): B (a compound having 3 or more and less than 10 is denoted as B)
[2]; KD ratio
  HRAS/KRAS (ratio of KD value with respect to HRAS to KD value with respect to KRAS): B (a compound having 3 or more and less than 10 is denoted as B)

## CCO[C@@H]1C[C@H]2C(=O)NC3(CCC3)C(=O)N(C)[C@@H](C3CCCC3)C(=O)N(C)[C@H](C(=O)N(C)C)CC(=O)N(C)[C@@H](CC3CCCCC3)C(=O)N[C@@H]([C@@H](C)CC)C(=O)N(C)CC(=O)N(C)[C@H]3CCCCCN(C3=O)[C@@H](Cc3ccc(C(F)(F)F)cc3)C(=O)N(C)CC(=O)N[C@@H](CCc3cc(F)c(C(F)(F)F)c(F)c3)C(=O)N2C1 [PP0671]
[1]
  NRAS/KRAS (ratio of KD value with respect to GDP-bound NRAS wild-type protein to KD value with respect to KRAS): B (a compound having 3 or more and less than 10 is denoted as B)
[2]
  HRAS/KRAS (ratio of KD value with respect to GDP-bound HRAS wild-type protein to KD value with respect to KRAS): B (a compound having 3 or more and less than 10 is denoted as B)

## CCCN(C)C(=O)[C@@H]1CC(=O)N(C)[C@@H](C(C)C)C(=O)N[C@@H]([C@@H](C)CC)C(=O)N(C)CC(=O)N(C)[C@H]2C/C=C\CCN(C2=O)[C@@H](Cc2ccc(C(F)(F)F)cc2)C(=O)N(C)CC(=O)N[C@@H](CCc2cc(F)c(C(F)(F)F)c(F)c2)C(=O)N2C[C@@H](C)C[C@H]2C(=O)NC2(CCC2)C(=O)N(C)[C@@H](C2CCCC2)C(=O)N1C [PP2079]
[1]
  NRAS/KRAS (ratio of KD value with respect to NRAS to KD value with respect to KRAS): A (a compound having 10 or more and less than 20 is denoted as A)
[2]
  HRAS/KRAS (ratio of KD value with respect to HRAS to KD value with respect to KRAS): A (a compound having 10 or more and less than 20 is denoted as A)

## CCCN1C(=O)CN(C)C(=O)CN(CC)C(=O)[C@H]([C@@H](C)CC)NC(=O)[C@H](CC(C)C)N(C)C(=O)C[C@@H](C(=O)N(C)C)N(C)C(=O)[C@H](C2CCCC2)N(C)C(=O)C2(CCC2)NC(=O)[C@@H]2C[C@@H](OCC)CN2C(=O)[C@H](CCc2ccc(C(F)(F)F)c(Cl)c2)NC(=O)CN(C)C(=O)[C@@H]1Cc1ccc(C(F)(F)F)cc1 [PP0428] ([NMeL]I[NEtG][Sar][NPrPhe(4-CF3)][Sar][hPhe(3-Cl-4-CF3)][Hyp](Et)[Ac4c][NMeGly(cPent)][NMeD]-NMe2; lactam N-11)
[1]
  NRAS/KRAS (ratio of KD value with respect to GDP-bound NRAS wild-type protein to KD value with respect to KRAS): B (a compound having 3 or more and less than 10 is denoted as B)
[2]
  HRAS/KRAS (ratio of KD value with respect to GDP-bound HRAS wild-type protein to KD value with respect to KRAS): C (A compound having a KD ratio of 0.1 or more and less than 3 is denoted as C)

## CCC[C@H]1C(=O)N[C@@H]([C@@H](C)CC)C(=O)N(C2CC2)CC(=O)N(C)[C@H]2C/C=C\CCN(C2=O)[C@@H](CC2CCC(F)(F)CC2)C(=O)N(C)CC(=O)N[C@@H](CCc2ccc(C(F)(F)F)c(OC)c2)C(=O)N2C[C@H](OCC)C[C@H]2C(=O)N(C)C2(CCC2)C(=O)N(C)[C@@H](C(CC)CC)C(=O)N(C)[C@H](C(=O)N(C)C)CC(=O)N1C [PP2349]
[1]
  NRAS/KRAS (ratio of KD value with respect to NRAS to KD value with respect to KRAS): A (a compound having 10 or more and less than 20 is denoted as A)
[2]
  HRAS/KRAS (ratio of KD value with respect to HRAS to KD value with respect to KRAS): A (a compound having 10 or more and less than 20 is denoted as A)
